One series deals with PA14. The series can be described thus: Bacterial growth (optical density) in reporter assay, PA14. The class given is cell-based, Pseudomonas aeruginosa. The settings on record: compound vs DMSO control. The procedure:
(§1) To determine the ability of the quinolines to inhibit PqsR functionality, the P. aeruginosa biosensor strains, PAO1-L and PA14, incorporating a chromosomal mCTX::PpqsA-lux transcriptional fusion, were used. These report on the activation of the pqsA promoter, regulated by PqsR [25]. PAO1-L and PA14 were chosen because they are genetically amenable and belong to the two major P. aeruginosa genomic groups. The quinolone compounds were incubated with the corresponding strain, and luminescence and optical density readings were recorded to monitor the effect of the quinolines on PqsR activity and bacterial growth, respectively. The compounds were screened at 10 µM concentration, and the activity was compared to a control of DMSO (0.1%) (Figure 3a). To be considered a hit, a threshold of at least 50% inhibition of the test compound, relative to the negative control had to be reached, without affecting bacterial growth. […] Concentration-response experiments were then carried out to determine the IC50 values (Figure 3b,c), which are summarised in Table 1.
(§2) Figure 3 Whole bacterial cell-based P. aeruginosa compound screen for both PqsR and growth inhibition (a) Activity against PA14 (green) and PAO1-L (purple) PpqsA-lux reporter strains at 10 µM test compound; (b) and (c) Dose-response curves for active compounds against PA14 (b) and PAO1-L (c); (d) and (e) growth curves for PA14 (d) and PAO1-L (e) in the presence of compound or DMSO control.

The next series in a line: Plasma stability, rat. The class given is in vitro ADME. Conditions: 37 °C, up to 2 h, read-out: Plasma Stability Rat t1/2. The procedure: Dilutions of a 10 mM test compound DMSO stock solution were prepared so that the final DMSO concentration was 1% v/v and the final test compound concentration tested was 1 µM. Following the addition of the test compound to plasma, the samples were pre-incubated for 10 min prior to the start of the incubation by the addition of the test compound. The test compound was incubated (n = 2; 1 µM final concentration) at 37 °C with plasma for up to 2 h. Aliquots were sampled at several time points and mixed with acetonitrile (containing internal standard) to terminate the reaction and precipitate the proteins. All the samples were mixed, centrifuged and the supernatants analysed by UPLC-MSMS. Parent disappearance and half-life (t 1/2) values were determined from the slope of the parent depletion curve. Control compounds (imidapril, enalapril, tenofovir and/or propantheline), were respectively included.

A further series relates to AQ production in PAO1-L. The experiment in a line: Alkylquinolone (HHQ, PQS, HQNO) production by LC-MS/MS, PAO1-L. The class given is cell-based, Pseudomonas aeruginosa. Conditions: 3x IC50, 16 h, culture supernatant. The procedure:
HQNO, can protect Staphylococcus aureus from vancomycin [31] and contributes to the environmental competitiveness of P. aeruginosa, through its activity as a potent inhibitor of the cytochrome bc1 complex. […] LC-MS/MS was used to quantify the major AQs HHQ, PQS and HQNO after incubation of the P. aeruginosa strains with the hit compounds, for 16 h. The assay was performed using both PAO1-L and PA14 strains which were treated with PqsR antagonists at concentrations three-fold higher than their IC50 values. The results obtained depended on the inhibitor and strain tested (Figure 5).
For each test sample, 100 µL of sterile filtered supernatant (the same preparation as for pyocyanin) was spiked with 10 µL of an internal standard solution (10 µM d4-PQS in MeOH), and diluted with water, to a total volume of 500 µL. Samples were then extracted three times with an 0.5 mL aliquot of ethyl acetate, vortex mixing the aqueous/organic mix for 2 min, then removing the organic phase once the layers had successfully partitioned. For each sample, the combined organic extracts were dried under vacuum and re-dissolved in 100 µL MeOH prior to analysis. For the LC-MS/MS analysis of supernatant extracts, the chromatography was achieved using a Shimadzu series 10AD VP LC system (Columbia, MD, USA). The LC column, maintained at 40 °C, was a Phenomenex Gemini C18 (3.0 µm, 100 × 3.0 mm) (Macclesfield, Cheshire, UK) with an appropriate guard column. Mobile phase A was 0.1% (v/v) formic acid in water containing 2 mM 2-picolinic acid, and mobile phase B 0.1% (v/v) formic acid in methanol. The flow rate throughout the chromatographic separation was 450 µL/min. After an injection of a 2 µL/sample, a binary gradient, beginning initially at 30% B, increased linearly to 99% B over 5 min. The composition remained at 99% B for 3 min, decreased to 30% B over 1 min, and stayed at this composition for 4 min, to allow for column equilibration. […] Where chromatographic peaks for HHQ, HQNO and PQS were detected, a peak area was determined, and analyte peak area/internal standard peak area calculated.

A further series relates to PAO1-L. The series can be described thus: Bacterial growth (optical density) in reporter assay, PAO1-L. The class given is cell-based, Pseudomonas aeruginosa. The settings on record: compound vs DMSO control. On the procedure: as §1, §2
Series [1] can be described thus: Hepatic microsomal stability, rat. The class given is in vitro ADME. The settings on record: liver microsomes, pH 7.4, 0.5 mg/mL protein, NADPH, 37 °C; for microsomal CLint at 1 µM: read-out: Microsomal Stability Rat Clint (intrinsic clearance); for half-life at 1 µM: read-out: Microsomal Stability Rat t1/2. On the procedure: Dilutions of a 1 mM test compound DMSO stock solution were prepared in buffer (typically 0.01 M phosphate buffered saline (pH 7.4) so that the final DMSO concentration was 0.1% v/v and the final test compound concentration tested was 1 µM. Following addition of protein (0.5 mg/mL final) and NADPH, the samples were pre-incubated for 10 min prior to the start of the incubation by the addition of test compound. The test compounds were then incubated (n = 2; 1 µM final concentration) at 37 °C with tissue microsomes. Aliquots were sampled at several time points and mixed with acetonitrile (containing internal standard) to terminate the reaction and precipitate the proteins. All the samples were mixed, centrifuged and the supernatants analysed by UPLC-MS/MS. The intrinsic clearance (Clint) and half-life (t 1/2) values were determined from the slope of the parent depletion curve. Control compounds for low, moderate and high intrinsic clearance, respectively, for both human and rat microsomes, were included.
For orientation: Microsomes from liver hold many membrane-bound enzymes, among them those of drug oxidation.

Where only a bound is given, the exact number is not on record here.

For orientation: microsomal CLint means the rate of metabolic loss divided by the concentration.

With `CC(=O)N1N=C(c2ccccc2)CC1c1cccc(Nc2ccnc3cc(Cl)ccc23)c1` (stereo not drawn) [IIa], in the series on PA14, the “Effect on bacterial growth, PA14” value is recorded as “without interfering with bacterial growth”. In addition, the half-life at 1 µM in “Plasma stability, rat” was over 240 min. Moreover, the “Inhibition of AQ production (in words), PAO1-L” value in the series with AQ production in PAO1-L is given as “moderate effect”. In the series on PAO1-L, the “Effect on bacterial growth, PAO1-L” value is given as “without interfering with bacterial growth”. Further, in series [1], the microsomal CLint at 1 µM stood at 87.8 µL/min/mg and the half-life at 1 µM was 15.8 min.

Take `O=CN1N=C(c2ccccc2)CC1c1cccc(Nc2ccnc3cc(Cl)ccc23)c1` (stereo not drawn) [Ia]: the “Effect on bacterial growth, PA14” value with PA14 is on record as “without interfering with bacterial growth”. The half-life at 1 µM in the series “Plasma stability, rat” is over 240 min. The “Inhibition of AQ production (in words), PAO1-L” value with AQ production in PAO1-L is “strongly-inhibited AQ production”. Moreover, the “Effect on bacterial growth, PAO1-L” value with PAO1-L is on record as “without interfering with bacterial growth”. Further, in series [1], the microsomal CLint at 1 µM turned out to be 122 µL/min/mg and the half-life at 1 µM amounted to 11.5 min.

The record behind these values is publication PMC6017655, “In Silico and in Vitro-Guided Identification of Inhibitors of Alkylquinolone-Dependent Quorum Sensing in Pseudomonas aeruginosa” (Molecules : A Journal of Synthetic Chemistry and Natural …, 2018).
